# Laboratory results as given in the NIST ThermoML archive (doi:10.1021/je020114l).
# Numbers after ± are expanded uncertainties.
# Conditions: 101.33 kPa, Liquid, Capillary tube (Ostwald / Ubbelohde) method
SMILES,viscosity (298.15 K) [mPa·s],viscosity (313.15 K) [mPa·s]
CCCCCl [1-chlorobutane],0.4273 ± 0.0045,0.3645 ± 0.004
CCC(C)O (stereo unspecified) [butan-2-ol],3.08 ± 0.027,1.794 ± 0.016
CCCCCC [hexane],0.2944 ± 0.0034,0.2537 ± 0.0031
